From US8143402B2, “Polymorphic forms of a macrocyclic inhibitor of HCV” (Tibotec Pharmaceuticals Ltd., priority 2007, dated 2012)
Like-named read-outs stand apart in the source and are kept apart here.

Legend:
Format in all cases: physicochemical
[1] = Solubility of Form I and Form II in different solvents (excess shaken 24 hours at 20° C., filtration, UV spectrometry); conditions: for solubility thermodynamic at 24 h: thermodynamic from solid, read-out: Solubility in g/100 mL of solution
Protocol: An excess of product (Form I or Form II, where appropriate) was shaken with the relevant solvent during 24 hours at 20° C. After filtration, the concentration of the product in solution was determined with UV spectrometry.

[2] = Stability of the polymorphic forms; conditions: compared among the polymorphic forms
[3] = Intrinsic dissolution; conditions: compared with Form I
[4] = Hygroscopicity of the polymorphic forms; conditions: compared among the polymorphic forms
[5] = 1-methoxy-2-propanol, 24 hours at 20° C.
[6] = 2-propanol/dichloromethane (97/3) (v/v), 24 hours at 20° C.
[7] = 2-propanone, 24 hours at 20° C.
[8] = 4-methyl-2-pentanone, 24 hours at 20° C.
[9] = acetonitrile, 24 hours at 20° C.
[10] = ethanol/water (95/5) (v/v), 24 hours at 20° C.

| Solubility in g/100 mL of solution [1, 5] [g/100 mL] | Solubility in g/100 mL of solution ([1]; 2-butanone, 24 hours at 20° C.) [g/100 mL] | Solubility in g/100 mL of solution [1, 6] [g/100 mL] | Solubility in g/100 mL of solution ([1]; 2-propanol, 24 hours at 20° C.) [g/100 mL] | Solubility in g/100 mL of solution [1, 7] [g/100 mL] | Solubility in g/100 mL of solution [1, 8] [g/100 mL] | Solubility in g/100 mL of solution [1, 9] [g/100 mL] | Solubility in g/100 mL of solution [1, 10] [g/100 mL] | Solubility in g/100 mL of solution ([1]; ethanol, 24 hours at 20° C.) [g/100 mL] | Solubility in g/100 mL of solution ([1]; methanol, 24 hours at 20° C.) [g/100 mL] | Solubility in g/100 mL of solution ([1]; toluene, 24 hours at 20° C.) [g/100 mL] | Compound | Stability of the polymorph form [2] | also measured |
| --- | --- | --- | --- | --- | --- | --- | --- | --- | --- | --- | --- | --- | --- |
| 1.6 | 2.5 | 0.19 | 0.11 | 1.2 | 0.81 | 0.20 | 0.27 | 0.17 | 0.29 | 0.43 | COc1ccc2c(O[C@@H]3C[C@H]4C(=O)N[C@]5(C(=O)NS(=O)(=O)C6CC6)C[C@H]5/C=C\CCCCN(C)C(=O)[C@@H]4C3)cc(-c3nc(C(C)C)cs3)nc2c1C [Form II] | less stable but nevertheless sufficiently stable | Solubility in g/100 mL of solution ([1]; 1-butanol, 24 hours at 20° C.): 0.31 g/100 mL; Intrinsic dissolution [3]: greater than that of Form I |
| 0.82 | 0.87 | 0.045 | 0.027 | 0.66 | 0.28 | 0.075 | 0.078 | 0.050 | 0.056 | 0.086 | COc1ccc2c(O[C@@H]3C[C@H]4C(=O)N[C@]5(C(=O)NS(=O)(=O)C6CC6)C[C@H]5/C=C\CCCCN(C)C(=O)[C@@H]4C3)cc(-c3nc(C(C)C)cs3)nc2c1C [Form I] | most stable form | Solubility in g/100 mL of solution ([1]; N,N-dimethylacetamide*, 125 mg of Form I was dissolved in 0.5 mL of N,N-dimethylacetamide): >20 g/100 mL; Solubility in g/100 mL of solution ([1]; N,N-dimethylacetamide, 24 hours at 20° C.): 16 g/100 mL; Solubility in g/100 mL of solution ([1]; acetic acid, 24 hours at 20° C.): 1.7 g/100 mL; solubility thermodynamic at 24 h ([1]; aqueous with cosolvent or surfactant or cyclodextrin, acetic acid/water (10/90) (v/v) (pH = 2.2), 24 hours at 20° C.): < 10 µg/mL; Solubility in g/100 mL of solution ([1]; dichloromethane, 24 hours at 20° C.): 8.5 g/100 mL; Solubility in g/100 mL of solution ([1]; ethyl acetate, 24 hours at 20° C.): 0.21 g/100 mL; Solubility in g/100 mL of solution ([1]; methanol/dichloromethane (50/50) (v/v), 24 hours at 20° C.): 8.3 g/100 mL; Solubility in g/100 mL of solution ([1]; tetrahydrofuran, 24 hours at 20° C.): 7.0 g/100 mL; solubility thermodynamic at 24 h ([1]; water (pH = 5.0), 24 hours at 20° C.): < 10 µg/mL; Hygroscopicity [4]: least hygroscopic form |
